Patent US9173935B2, “Phospholipid drug analogs” (Telormedix SA, priority 2010, dated 2015)

Tests used:
[1] = Stability of solid samples with respect to heat (80° C.), HPLC; assay type: physicochemical
Method: Solid samples of each compound were maintained at 80° C. and analyzed by HPLC.

[2] = Plasma stability, second experiment, human plasma; conditions: human plasma, second experiment
Method: Second experiment: Test compounds (5 mM in DMSO) were diluted at the final concentration of 250 μM with ACN-MeOH 1:1.
Human plasma (1.180 ml) was spiked with 20 μl of 250 μM solution of the compound (4.16 μM final concentration) and aliquots of 50 μl volume were taken at 0, 15, 30, 60, 120 min and 5 hrs, and immediately quenched with 200 μl of a solution of Verapamil 250 ng/ml (internal standard, I.S.) in ACN:MeOH 95:5. Samples were then centrifuged for 20 min at 3000 rpm at 10° C. and analyzed as reported below. […] The supernatant fractions were analyzed by LC/MS/MS. Zero-time incubations were used as 100% values.
Stability was calculated as percentage remaining of the area ratio compound/I.S. at each time point vs. area ratio compound/I.S. at time 0 min.

[3] = tested on: HLA-DR+/CD20+ B cells; test: FACS analysis of B cell activation (CD40) in whole blood; assay type: cell-based, human; conditions: 24 hours, 2 and 10 uM, three donors
Method: (§1) A flow cytometric analysis was performed on whole blood from three donors after treatment with two compound concentrations for 24 h. The FACS analysis for donor 1 and donor 2 was made on another day than donor 3. The compound concentrations were as follows:
B cell activation: 2 and 10 uM
(§2) The FACS analysis was used to identify whether the test compounds could induce activation of B cells, and two different subsets of dendritic cells, namely the myeloid CD11c+/CD123− DCs and the plasmacytoid CD11c−/CD123+ DCs. The following markers were studied to identify the activation status of the different subsets:
(§3) The FACS staining was performed according to the manufacturer's instructions. Lysis of red blood cells was performed before FACS staining in order to minimize auto-florescence. To include as many B cells and DCs in the study as possible the FACS analyses were performed on 500,000 cells in total for each staining. A P1 gate was set only to include relevant cells on FSC vs. SSC (see FIGS. 12-15). The results of the individual analysis were present as Mean Fluorescence Intensity
The analysis of expression of the activation marker CD40 on B cells was made on double positive HLA-DR (MHC class II) (P4 gate) and CD20 cells (B cell marker) (P8 gate).

[4] = tested on: HLA-DR+/CD11c+/CD123- mDCs; test: FACS analysis of myeloid DC activation in whole blood; assay type: cell-based, human; conditions: 24 hours, 0.1 and 0.5 uM, three donors
Method: as §1, §2, §3
The analysis of myeloid DCs was based on HLA-DR+/CD11c+/CD123-cells, thus all analyzed cells was included in the HLA-DR+ (P3) gate and CD11c+/CD123− (Q4) gate (see gates in FIGS. 13-15).

[5] = tested on: Escherichia coli WP2 uvrA; test: Bacterial mutation assay, Escherichia coli; conditions: absence or presence of S9 metabolism
Method: The five tester strains TA1535, TA1537, TA98, TA100 and WP2 uvrA were used. Experiments were performed both in the absence and presence of metabolic activation, using liver S9 fraction from rats pre-treated with phenobarbitone and betanaphthoflavone. SC12 was used as a solution in dimethylsulfoxide (DMSO).

[6] = Single dose intravenous acute toxicity study in rats; assay type: in vivo, Sprague Dawley rat; conditions: for Mortality: preliminary phase, one male and one female; for Mortality and signs of toxicity: main phase
Method: An additional group, similarly composed, received the vehicle alone and acted as a control. […] Clinical signs were limited to piloerection and reduced activity, observed on the day of dosing.
In the main phase, 5 male and 5 female animals were dosed at 90 mg/kg and observed for a period of 14 days. A second group, similarly constituted, received the vehicle alone and acted as control. […] In addition, one male and one female dosed at 90 mg/kg were found dead on Day 2 of the study. Twitches, ataxia, piloerection, reduced activity and hunched posture were the major signs observed in animals before death. […] Piloerection was observed up to Day 3 of the study. A second group, similarly composed, was dosed at 80 mg/kg.

[7] = target: CYP1A2 (Homo sapiens (Human), UniProt P05177); test: Fluorescent High Throughput P450 assay, CYP1A2; assay type: biochemical; conditions: substrate CEC; read-out: CYP1A2 IC50 (Mean ± S.D.)
Method: (§4) Inhibition of the P450 isoforms was measured in specific assays using specific substrates that become fluorescent upon CYP metabolism. Compounds, dissolved in ACN (acetonitrile) (CYP2E1, CYP2C8, CYP2B6, CYP3A5) or DMSO (all remaining isoforms), were tested in duplicate (n=2) in concentration-response curves (eight concentrations) in a 96-well plate containing incubation/NADPH regenerating buffer. Specific isoenzymes and substrates were added and incubated at 37° C. Reactions were terminated at different times, depending on the assays, and plates read on a Fluoroskan Ascent at the appropriate emission/excitation wavelengths. Concentration-response curves performed in duplicate for known inhibitors for each isoenzyme were tested in every assay as positive control.

[8] = target: CYP2D6 (Homo sapiens (Human), UniProt P10635); test: Fluorescent High Throughput P450 assay, CYP2D6; assay type: biochemical; conditions: substrate AMMC; read-out: CYP2D6 IC50 (Mean ± S.D.)
Method: as §4

[9] = target: CYP3A5 (Homo sapiens (Human), UniProt P20815); test: Fluorescent High Throughput P450 assay, CYP3A5; assay type: biochemical; conditions: substrate BFC; read-out: CYP3A5 IC50 (Mean ± S.D.)
Method: as §4

[10] = target: CYP2E1 (Homo sapiens (Human), UniProt P05181); test: Fluorescent High Throughput P450 assay, CYP2E1; assay type: biochemical; conditions: substrate MFC; read-out: CYP2E1 IC50 (Mean ± S.D.)
Method: as §4

[11] = target: CYP2C8 (Homo sapiens (Human), UniProt P10632); test: Fluorescent High Throughput P450 assay, CYP2C8; assay type: biochemical; conditions: substrate DBF; head of Table 31 prints CYP2CB; read-out: CYP2C8 IC50 (Mean ± S.D.)
Method: as §4

[12] = tested on: Cutaneous Squamous Cell Carcinoma cell lines SCL-I, SCL-II, SCC-12, SCC-13; test: Direct proapoptotic and cytotoxic effects on SCC cells (real-time cell analysis, microscopy); assay type: cell-based, human
Method: SCC cells are grown under standard conditions (10% FBS).
Time and dose dependency of effects on total cell numbers have been investigated by real-time cell analysis, which is based on continuous monitoring of electric conductance in microtiter wells (E-plates, Roche), which corresponds to the cell numbers. […] For these assays 4 cell lines should be used to obtain a representative overview on the effects on SCC cells.

[13] = tested on: RAW.264 cells; test: Intracellular uptake in RAW.264 cells (LC-MS); assay type: cell-based; conditions: 10 microM
Method: 5×10^6 RAW.264 cells were adhered overnight in 10 cm tissue culture dishes. […] […] Supernatant (2 ml) and cells (pellets) were collected by trypsinization and frozen at […] for subsequent analysis by LC-MS.

Sequence of CYP1A2 (P05177 whole entry, looked up): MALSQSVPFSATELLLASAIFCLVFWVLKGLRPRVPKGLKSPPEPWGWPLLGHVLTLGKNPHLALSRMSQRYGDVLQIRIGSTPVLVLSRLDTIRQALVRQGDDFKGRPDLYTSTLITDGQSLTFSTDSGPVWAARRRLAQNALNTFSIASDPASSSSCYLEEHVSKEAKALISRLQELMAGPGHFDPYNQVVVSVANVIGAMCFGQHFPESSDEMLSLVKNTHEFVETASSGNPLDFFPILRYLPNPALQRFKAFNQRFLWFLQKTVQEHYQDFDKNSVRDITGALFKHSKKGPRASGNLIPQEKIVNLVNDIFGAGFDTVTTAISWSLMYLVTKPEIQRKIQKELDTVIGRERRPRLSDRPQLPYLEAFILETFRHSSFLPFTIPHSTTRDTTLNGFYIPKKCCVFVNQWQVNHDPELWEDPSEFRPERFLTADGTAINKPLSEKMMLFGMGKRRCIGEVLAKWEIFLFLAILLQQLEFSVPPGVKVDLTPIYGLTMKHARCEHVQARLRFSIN
Sequence of CYP2E1 (P05181 whole entry, looked up): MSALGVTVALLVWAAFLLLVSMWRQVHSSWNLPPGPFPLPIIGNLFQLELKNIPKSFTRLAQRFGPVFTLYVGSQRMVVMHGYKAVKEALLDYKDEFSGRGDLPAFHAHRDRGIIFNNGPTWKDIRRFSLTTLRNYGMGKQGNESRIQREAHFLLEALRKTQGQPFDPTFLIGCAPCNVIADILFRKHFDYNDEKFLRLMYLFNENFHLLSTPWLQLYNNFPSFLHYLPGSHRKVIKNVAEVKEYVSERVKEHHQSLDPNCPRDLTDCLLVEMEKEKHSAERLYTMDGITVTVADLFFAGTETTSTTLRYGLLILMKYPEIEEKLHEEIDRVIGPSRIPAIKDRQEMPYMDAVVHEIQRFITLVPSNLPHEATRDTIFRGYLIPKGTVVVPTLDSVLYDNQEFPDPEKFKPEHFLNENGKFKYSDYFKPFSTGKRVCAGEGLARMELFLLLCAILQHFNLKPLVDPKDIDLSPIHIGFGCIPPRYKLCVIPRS
Sequence of CYP2D6 (P10635 whole entry, looked up): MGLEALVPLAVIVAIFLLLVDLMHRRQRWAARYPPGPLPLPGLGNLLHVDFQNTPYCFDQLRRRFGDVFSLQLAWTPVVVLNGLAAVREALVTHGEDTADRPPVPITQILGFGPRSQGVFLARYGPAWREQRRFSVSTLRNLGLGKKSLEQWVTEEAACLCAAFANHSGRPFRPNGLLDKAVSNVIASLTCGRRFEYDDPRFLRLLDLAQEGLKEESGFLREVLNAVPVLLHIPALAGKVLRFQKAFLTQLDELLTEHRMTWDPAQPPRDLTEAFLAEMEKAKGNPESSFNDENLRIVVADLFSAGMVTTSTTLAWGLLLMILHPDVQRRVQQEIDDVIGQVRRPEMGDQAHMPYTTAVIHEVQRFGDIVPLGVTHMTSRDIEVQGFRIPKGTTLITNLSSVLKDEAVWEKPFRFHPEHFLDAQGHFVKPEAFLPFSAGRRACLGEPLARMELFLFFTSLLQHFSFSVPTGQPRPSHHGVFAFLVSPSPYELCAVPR
Sequence of CYP3A5 (P20815 whole entry, looked up): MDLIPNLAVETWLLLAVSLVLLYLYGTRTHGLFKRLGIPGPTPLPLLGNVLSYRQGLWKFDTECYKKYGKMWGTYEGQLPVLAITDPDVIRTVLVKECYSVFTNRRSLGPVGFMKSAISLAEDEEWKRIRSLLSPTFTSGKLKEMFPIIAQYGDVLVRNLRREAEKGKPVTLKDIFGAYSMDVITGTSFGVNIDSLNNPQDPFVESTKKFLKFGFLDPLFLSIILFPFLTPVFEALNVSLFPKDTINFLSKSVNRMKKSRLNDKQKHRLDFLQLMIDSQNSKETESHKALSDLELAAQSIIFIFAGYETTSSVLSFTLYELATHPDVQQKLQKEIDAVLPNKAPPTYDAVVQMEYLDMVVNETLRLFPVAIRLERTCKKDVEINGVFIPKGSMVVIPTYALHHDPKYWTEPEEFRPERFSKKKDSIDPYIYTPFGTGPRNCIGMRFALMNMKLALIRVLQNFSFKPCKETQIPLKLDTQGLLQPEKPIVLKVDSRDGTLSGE
Sequence of CYP2C8 (P10632 whole entry, looked up): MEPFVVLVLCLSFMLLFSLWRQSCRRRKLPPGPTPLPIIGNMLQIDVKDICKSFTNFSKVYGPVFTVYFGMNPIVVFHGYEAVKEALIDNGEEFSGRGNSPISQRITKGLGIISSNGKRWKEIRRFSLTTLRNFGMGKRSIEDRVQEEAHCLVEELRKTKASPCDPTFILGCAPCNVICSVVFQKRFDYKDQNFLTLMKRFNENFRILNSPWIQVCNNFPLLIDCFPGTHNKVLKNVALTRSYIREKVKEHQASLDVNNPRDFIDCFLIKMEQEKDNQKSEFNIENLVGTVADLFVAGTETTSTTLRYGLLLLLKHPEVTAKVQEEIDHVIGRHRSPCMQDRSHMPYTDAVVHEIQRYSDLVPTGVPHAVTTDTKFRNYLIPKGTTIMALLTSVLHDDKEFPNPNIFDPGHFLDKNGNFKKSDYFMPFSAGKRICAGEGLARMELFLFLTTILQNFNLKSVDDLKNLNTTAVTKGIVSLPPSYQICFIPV

## CCCCCCCCCCCC(=O)OCC(COP(=O)(O)OCCNC(=O)c1ccc(Cn2c(=O)[nH]c3c(N)nc(OCCOC)nc32)cc1)OC(=O)CCCCCCCCCCC (stereo not drawn) [SC12]
[1]; After 2 hrs at 80° C.
  HPLC purity of solid sample: 90% HPLC
[1]; After 22 hrs at 80° C.
  HPLC purity of solid sample: 88% HPLC
[1]; t = 0
  HPLC purity of solid sample: 90% HPLC
[2]; 0 min
  % Remaining: 100%
[2]; 15 min
  % Remaining: 112.6 ± 1.0%
[2]; 30 min
  % Remaining: 110.0 ± 1.0%
[2]; 60 min
  % Remaining: 96.7 ± 6.3%
[2]; 120 min
  % Remaining: 102.1 ± 8.7%
[2]; up to 120 min
  Plasma stability classification: stable
[3]
  CD40 expression (MFI) on B cells: induced CD40 expression in donor 1 and donor 2 in all tested concentrations
[4]
  CCR7 expression on mDCs: less potent stimulator of CCR7 expression
  CD80 expression on mDCs: induced a noteworthy CD80 expression in all three donors
  CD86 expression on mDCs: induces a weak CD86 expression in donor 2 and 3, but not in donor 1
[5]; 50.0-5000 micrograms/plate
  Toxicity to tester strains: No toxicity was observed
[5]; up to 5000 micrograms/plate
  Reverse mutation: does not induce reverse mutation
[6]; 76 mg/kg i.v.
  Mortality: No mortality occurred
[6]; 80 mg/kg i.v.
  Mortality and signs of toxicity: no mortality and no signs of toxicity
[6]; 90 mg/kg i.v., 5 male and 5 female
  Mortality and signs of toxicity: induced mortality or significant signs of toxicity
[6]; 100 mg/kg i.v.
  Mortality: Both animals died at dosing
[6]; single intravenous dose
  Maximum tolerated dose: 80 mg/kg
[7]
  IC50: > 100 µM
[8]
  IC50: 67 ± 3.8 µM
[9]
  IC50: 10.5 ± 0.5 µM
[10]
  IC50: 9.2 ± 0.1 µM
[11]
  IC50: > 100 µM
[12]; 4 cutaneous SCC cell lines, versus untreated control
  Cell numbers (electric conductance, real-time cell analysis): reduced cell numbers
[12]; day 3, 120 microM
  Morphology and proliferation (microscopy): cell detachment, morphological changes and inhibition of proliferation
[13]; incubation 1 hours
  Intracellular Concentration: 18.5 % of total
[13]; incubation 6 hours
  Intracellular Concentration: 20.6 % of total
[13]; incubation 18 hours
  Intracellular Concentration: 21.4 % of total
